Key:
MOLT-4 = assay: cells; details: Homo sapiens, MOLT-4, 48 h; for GI50: read-out: Median Growth Inhibitory Concentration (GI50); for CC50: read-out: Median Lethal Concentration (LC50)
HL-60 (TB) = assay: cells; details: Homo sapiens, HL-60, 48 h; for GI50: read-out: Median Growth Inhibitory Concentration (GI50); for CC50: read-out: Median Lethal Concentration (LC50)
SF-295 = assay: cells; details: Homo sapiens, SF-295, 48 h; for GI50: read-out: Median Growth Inhibitory Concentration (GI50); for CC50: read-out: Median Lethal Concentration (LC50)
CCRF-CEM = assay: cells; details: Homo sapiens, 48 h, read-out: Median Growth Inhibitory Concentration (GI50)
SF-268 = assay: cells; details: Homo sapiens, SF-268, 48 h; for GI50: read-out: Median Growth Inhibitory Concentration (GI50); for CC50: read-out: Median Lethal Concentration (LC50)
NCI-H226 = assay: cells; details: Homo sapiens, NCI-H226, 48 h; for GI50: read-out: Median Growth Inhibitory Concentration (GI50); for CC50: read-out: Median Lethal Concentration (LC50)
ACHN = assay: cells; details: Homo sapiens, 48 h; for GI50: read-out: Median Growth Inhibitory Concentration (GI50); for CC50: read-out: Median Lethal Concentration (LC50)
SK-MEL-28 = assay: cells; details: Homo sapiens, SK-MEL-28, 48 h; for GI50: read-out: Median Growth Inhibitory Concentration (GI50); for CC50: read-out: Median Lethal Concentration (LC50)
SK-MEL-5 = assay: cells; details: Homo sapiens, SK-MEL-5, 48 h, read-out: Median Growth Inhibitory Concentration (GI50)
A498 = assay: cells; details: Homo sapiens, A498, 48 h; for GI50: read-out: Median Growth Inhibitory Concentration (GI50); for CC50: read-out: Median Lethal Concentration (LC50)
NCI-H23 = assay: cells; details: Homo sapiens, NCI-H23, 48 h; for GI50: read-out: Median Growth Inhibitory Concentration (GI50); for CC50: read-out: Median Lethal Concentration (LC50)
COLO 205 = assay: cells; details: Homo sapiens, COLO 205, 48 h; for GI50: read-out: Median Growth Inhibitory Concentration (GI50); for CC50: read-out: Median Lethal Concentration (LC50)
LOX IMVI = assay: cells; details: Homo sapiens, 48 h, read-out: Median Growth Inhibitory Concentration (GI50)
[1] = system: Vascular Endothelial Growth Factor (VEGF) production by human melanoma cell line RPMI-7951; assay: VEGF ELISA, RPMI-7951; details: for activity at 5 µM / activity at 20 µM: Homo sapiens, RPMI-7951, 72 h, read-out: VEGF; for VEGF ELISA / VEGF: RPMI-7951; for VEGF ELISA: DMSO control 3713
Procedure: RPMI-795 1, MDA-MB-231 and MDA-MB-435 cell lines were cultured in MEM-alpha medium (GIBCO-BRL, Long Island, N.Y.) containing 10% fetal bovine serum (RPMI-7951, MDA-MB-231) or 5% FBS (MDA-MB-435) at 37° C. and under 5% CO2/95% air. […] The cells were cultured in 48 well plates in all of the experiments described.
A VEGF enzyme-linked immunosorbent assay (ELISA) was utilized to determine the effect of the compounds of the present invention on VEGF production of a variety of human cancer cell lines. For the VEGF assay, cells were plated at a concentration of 80,000 cells/well and cultured overnight. Compounds or vehicle (DMSO 0.1%) were then added and the plates were incubated for 72 hours. Supernatant was then collected from each well and frozen in a −80° C. freezer until needed. Cell viability was determined by Neutral Red Assay. VEGF ELISA Kit (R & D, Minneapolis, Minn.) was used to determine the amount of VEGF in the culture supernatants. The ELISA was carried out according to the manufacturer's procedure.

SK-OV-3 = assay: cells; details: Homo sapiens, SK-OV-3, 48 h; for GI50: read-out: Median Growth Inhibitory Concentration (GI50); for CC50: read-out: Median Lethal Concentration (LC50)
UO-31 = assay: cells; details: Homo sapiens, UO-31, 48 h; for GI50: read-out: Median Growth Inhibitory Concentration (GI50); for CC50: read-out: Median Lethal Concentration (LC50)
OVCAR-3 = assay: cells; details: Homo sapiens, OVCAR-3, 48 h; for GI50: read-out: Median Growth Inhibitory Concentration (GI50); for CC50: read-out: Median Lethal Concentration (LC50)
OVCAR-4 = assay: cells; details: Homo sapiens, OVCAR-4, 48 h; for GI50: read-out: Median Growth Inhibitory Concentration (GI50); for CC50: read-out: Median Lethal Concentration (LC50)
KM12 = assay: cells; details: Homo sapiens, KM12, 48 h; for GI50: read-out: Median Growth Inhibitory Concentration (GI50); for CC50: read-out: Median Lethal Concentration (LC50)
SR = assay: cells; details: Homo sapiens, 48 h; for GI50: read-out: Median Growth Inhibitory Concentration (GI50); for CC50: read-out: Median Lethal Concentration (LC50)
SNB-19 = assay: cells; details: Homo sapiens, SNB-19, 48 h; for GI50: read-out: Median Growth Inhibitory Concentration (GI50); for CC50: read-out: Median Lethal Concentration (LC50)
HS 578T = assay: cells; details: Homo sapiens, 48 h; for GI50: read-out: Median Growth Inhibitory Concentration (GI50); for CC50: read-out: Median Lethal Concentration (LC50)
786-0 = assay: cells; details: Homo sapiens, 786-0, 48 h; for GI50: read-out: Median Growth Inhibitory Concentration (GI50); for CC50: read-out: Median Lethal Concentration (LC50)
HOP-62 = assay: cells; details: Homo sapiens, HOP-62, 48 h, read-out: Median Growth Inhibitory Concentration (GI50)
HT29 = assay: cells; details: Homo sapiens, HT-29, 48 h; for GI50: read-out: Median Growth Inhibitory Concentration (GI50); for CC50: read-out: Median Lethal Concentration (LC50)
HCC-2998 = assay: cells; details: Homo sapiens, HCC 2998, 48 h; for GI50: read-out: Median Growth Inhibitory Concentration (GI50); for CC50: read-out: Median Lethal Concentration (LC50)
A549 = assay: cells; details: Homo sapiens, A549, 48 h; for GI50: read-out: Median Growth Inhibitory Concentration (GI50); for CC50: read-out: Median Lethal Concentration (LC50)
MDA-MB-231 = assay: cells; details: Homo sapiens, MDA-MB-231, 48 h; for GI50: read-out: Median Growth Inhibitory Concentration (GI50); for CC50: read-out: Median Lethal Concentration (LC50)
NCI-H522 = assay: cells; details: Homo sapiens, NCI-H522, 48 h; for GI50: read-out: Median Growth Inhibitory Concentration (GI50); for CC50: read-out: Median Lethal Concentration (LC50)
[2] = 5 μM, DMSO control 4197 (EF-25: 1045)

Structure (SMILES): O=C1C(=Cc2ccccc2O)CCCC1=Cc1ccccc1O [EF4, 2,6Bis(2-hydroxybenzylidene)cyclohexanone]
- GI50 (MOLT-4): 2.2 µM
- CC50 (MOLT-4): 69.5 µM
- GI50 (HL-60 (TB)): 1.9 µM
- CC50 (HL-60 (TB)): 53.5 µM
- GI50 (SF-295): 3.4 µM
- CC50 (SF-295): 79.5 µM
- GI50 (CCRF-CEM): 1.4 µM
- GI50 (SF-268): 3 µM
- CC50 (SF-268): 53.2 µM
- GI50 (NCI-H226): 19 µM
- CC50 (NCI-H226): > 100 µM
- GI50 (ACHN): 3.3 µM
- CC50 (ACHN): 32.7 µM
- GI50 (SK-MEL-28): 2.9 µM
- CC50 (SK-MEL-28): 33.8 µM
- GI50 (SK-MEL-5): 1.6 µM
- GI50 (A498): 2.2 µM
- CC50 (A498): 16.2 µM
- GI50 (NCI-H23): 1.8 µM
- CC50 (NCI-H23): 9.4 µM
- GI50 (COLO 205): 2 µM
- CC50 (COLO 205): 8.7 µM
- GI50 (LOX IMVI): 2.2 µM
- activity at 5 µM [1]: 70%
- activity at 20 µM [1]: 0%
- VEGF ELISA ([1]; 5 μM): 2159 pg/ml/well
- VEGF [1, 2]: 2920 pg/mL
- VEGF ELISA ([1]; 20 μM): 199 pg/ml/well
- VEGF ([1]; 20 μM, DMSO control 4197): 0 pg/mL
- GI50 (SK-OV-3): 6.7 µM
- CC50 (SK-OV-3): 63.6 µM
- GI50 (UO-31): 1.6 µM
- CC50 (UO-31): 6.2 µM
- GI50 (OVCAR-3): 3.7 µM
- CC50 (OVCAR-3): 40.7 µM
- GI50 (OVCAR-4): 2.5 µM
- CC50 (OVCAR-4): 18.4 µM
- GI50 (KM12): 1.6 µM
- CC50 (KM12): 6.5 µM
- GI50 (SR): 1.6 µM
- CC50 (SR): > 100 µM
- GI50 (SNB-19): 3.2 µM
- CC50 (SNB-19): 42.3 µM
- GI50 (HS 578T): 5.1 µM
- CC50 (HS 578T): > 100 µM
- GI50 (786-0): 2.3 µM
- CC50 (786-0): 15.9 µM
- GI50 (HOP-62): 2.9 µM
- GI50 (HT29): 2.2 µM
- CC50 (HT29): 29.1 µM
- GI50 (HCC-2998): 1.7 µM
- CC50 (HCC-2998): 5.9 µM
- GI50 (A549): 2.6 µM
- CC50 (A549): > 100 µM
- GI50 (MDA-MB-231): 3.5 µM
- CC50 (MDA-MB-231): > 100 µM
- GI50 (NCI-H522): 2.9 µM
- CC50 (NCI-H522): > 100 µM

Structure (SMILES): COc1cc(/C=C/C(=O)CC(=O)/C=C/c2ccc(O)c(OC)c2)ccc1O [Curcumin]
- GI50 (MOLT-4): 5 µM
- CC50 (MOLT-4): 79.4 µM
- GI50 (HL-60 (TB)): 7.9 µM
- CC50 (HL-60 (TB)): < 100 µM
- GI50 (SF-295): 7.9 µM
- CC50 (SF-295): 50.1 µM
- GI50 (CCRF-CEM): 3.2 µM
- GI50 (SF-268): 6.3 µM
- CC50 (SF-268): < 100 µM
- GI50 (NCI-H226): 20 µM
- CC50 (NCI-H226): < 100 µM
- GI50 (ACHN): 12.6 µM
- CC50 (ACHN): 63.1 µM
- GI50 (SK-MEL-28): 5 µM
- CC50 (SK-MEL-28): 50.1 µM
- GI50 (SK-MEL-5): 7.9 µM
- GI50 (A498): 15.8 µM
- CC50 (A498): 63.1 µM
- GI50 (NCI-H23): 5 µM
- CC50 (NCI-H23): < 100 µM
- GI50 (COLO 205): 12.6 µM
- CC50 (COLO 205): 63.1 µM
- GI50 (LOX IMVI): 2.5 µM
- activity at 5 µM [1]: 98%
- activity at 20 µM [1]: 5%
- VEGF ELISA ([1]; 5 μM): 3989 pg/ml/well
- VEGF [1, 2]: 4111 pg/mL
- VEGF ELISA ([1]; 20 μM): 714 pg/ml/well
- VEGF ([1]; 20 μM, DMSO control 4197): 221 pg/mL
- GI50 (SK-OV-3): 7.9 µM
- CC50 (SK-OV-3): 50.1 µM
- GI50 (UO-31): 12.6 µM
- CC50 (UO-31): 50.1 µM
- GI50 (OVCAR-3): 6.3 µM
- CC50 (OVCAR-3): 63.1 µM
- GI50 (OVCAR-4): 10 µM
- CC50 (OVCAR-4): < 100 µM
- GI50 (KM12): 5 µM
- CC50 (KM12): 63.1 µM
- GI50 (SR): 3.2 µM
- CC50 (SR): 79.4 µM
- GI50 (SNB-19): 7.9 µM
- CC50 (SNB-19): 63.1 µM
- GI50 (HS 578T): 10 µM
- CC50 (HS 578T): < 100 µM
- GI50 (786-0): 3.2 µM
- CC50 (786-0): 39.8 µM
- GI50 (HOP-62): 4 µM
- GI50 (HT29): 5 µM
- CC50 (HT29): < 100 µM
- GI50 (HCC-2998): 3.2 µM
- CC50 (HCC-2998): 31.6 µM
- GI50 (A549): 12.6 µM
- CC50 (A549): 79.4 µM
- GI50 (MDA-MB-231): 20 µM
- CC50 (MDA-MB-231): < 100 µM
- GI50 (NCI-H522): 5 µM
- CC50 (NCI-H522): 79.4 µM
